Assay [1] addresses KRAS^G12C (Homo sapiens, UniProt P01116, C118A/G12C). Description: Coupled Nucleotide Exchange Assay. The conditions noted are these: GDP-bound KRAS (aa 1-169) G12C/C118A; 2 h compound pre-incubation; SOS-mediated exchange, 30 min; cRAF binding (AlphaLISA). In kind it is biochemical. An outline of the steps:
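GDP-bound His-tagged KRAS aa 1-169 (G12C/C118A) pre-incubated 2 h with compound in 25 mM HEPES pH 7.4, 10 mM MgCl2, 0.01% Triton X-100 (±0.1% BSA), then SOS (aa 564-1049) plus GTP added for 30 min. GST-cRAF RBD binding read by AlphaLISA; DMSO-normalized, 4-parameter fit gives IC50.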

Assay [2] has as its system A549 cells. Description: Cell Viability Assay, A549. Format: cell-based. The settings on record: A549; human lung carcinoma; 72 h; CellTiter-Glo. On the procedure:
(§1) MIA PaCa-2 (human pancreatic carcinoma; ATCC CRL-1420) or A549 (human lung carcinoma; ATCC CCL-185) cells were cultured in RPMI 1640 medium containing 10% fetal bovine serum and 1×penicillin/streptomycin/L-glutamine. Cells were seeded in 384-well plates at a density of 1.67E+04 cells/mL and incubated at 37° C., 5% CO2, overnight. Serially-diluted compound or DMSO was added to the cells, and plates were incubated at 37° C., 5% CO2 for 72 h. Cell viability was measured using a CellTiter-Glo® Luminescent Cell Viability Assay kit (Promega) according to the manufacturer's protocol. The luminescence signal of treated samples was normalized to DMSO control, and data were analyzed using a 4-parameter logistic model to calculate IC50 values.
(§2) The following data (Table 3) categorizes the IC50 of each compound for inhibiting enzymatic activity of KRAS^G12C in the indicated cells.
A general note: In ATP-based viability assays light output follows the ATP content of the culture.

Assay [3] deals with MIA PaCa-2 cells. Description: Cell Viability Assay, MIA PaCa-2. Format: cell-based. The conditions noted are these: Homo sapiens, MIA PaCa-2, 72 h, human pancreatic carcinoma, CellTiter-Glo. On the procedure: as §1, §2

Chain of KRAS^G12C (P01116 1-169 isoform P01116-2 G12C/C118A): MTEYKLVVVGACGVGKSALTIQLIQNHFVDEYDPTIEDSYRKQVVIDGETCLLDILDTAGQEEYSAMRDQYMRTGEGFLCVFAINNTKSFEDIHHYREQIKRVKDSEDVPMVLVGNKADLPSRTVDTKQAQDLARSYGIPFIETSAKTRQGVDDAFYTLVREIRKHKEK

Turning to `C=CC(=O)N1CCN([C@@H]2CN(c3cc(N4CCC5(CC4)OC4(COC4)c4nccc(C)c45)nc(C(F)(F)F)n3)[C@@H]2C)CC1` [Compound 3-102, 1-(4-((2R,3R)-2-methyl-1-(6-(4′-methyl-1″H-dispiro[oxetane-3,7′-furo[3,4-b]pyridine-5′.4″-piperidin]-1″- yl)-2-(trifluoromethyl)-4-pyrimidinyl)-3-azetidinyl)-1-piperazinyl)-2-propen-1-one], the 50% inhibitory concentration (IC50) (commonly the concentration at which inhibition is half-maximal) in assay [1] is 23 nM; in assay [2], greater than 5000 nM; in assay [3], 77 nM.
Take `C=CC(=O)N1CCN(C2CN(c3cc(N4CCC5(CC4)CC(Br)=NO5)nc(C(F)(F)F)c3C#N)C2)CC1` [Compound 3-017, 4-(3-(4-acryloylpiperazin-1-yl)-azetidin-1-yl)-6-(3-bromo-1-oxa-2.8-diazaspiro[4.5]dec-2-en-8-yl)-2-(trifluoromethyl)nicotinonitrile]: the IC50 in assay [1] is 828 nM; in assay [2], greater than 5000 nM; in assay [3], 1990 nM.
For `C=CC(=O)N1CCN([C@@H]2CN(c3cc(N4CCC5(CC4)OCC=C5C)nc(C(F)(F)F)c3C#N)[C@@H]2C)CC1` [Compound 3-052, 4-((2R,3R)-3-(4-Acryloylpiperazin-1-yl)-2-methylazetidin-1-yl)-6-(4-methyl-1-oxa-8-azaspiro[4.5]dec-3-en-8-yl)-2-(trifluoromethyl)nicotinonitrile] the same measures were 161 nM, 4550 nM and 254 nM.
Turning to `C=CC(=O)N1CCN(C2CN(c3cc(N4CCC5(CC4)OCc4ccccc45)nc(C(F)(F)F)c3C#N)C2)CC1` [Compound 3-028, 4-(3-(4-acryloylpiperazin-1-yl)azetidin-1-yl)-6-(3H-spiro[isobenzofuran-1,4′-piperidin]-1′-yl)-2-(trifluoromethyl)nicotinonitrile], the results for the IC50 in assay [1], in assay [2] and in assay [3] were 1790 nM, greater than 3330 nM and 1340 nM, respectively.
For `C=CC(=O)N1CCN(C2CN(c3cc(N4CCC5(CC4)OCC=C5C)nc(C(F)(F)F)c3C#N)C2)CC1` [Compound 3-051, 4-(3-(4-Acryloylpiperazin-1-yl)azetidin-1-yl)-6-(4-methyl-1-oxa-8-azaspiro[4.5]dec-3-en-8-yl)-2-(trifluoromethyl)nicotinonitrile] the same measures were 102 nM, greater than 5000 nM and 284 nM.
For `C=CC(=O)N1CCN(C2CN(c3cc(N4CCC5(CCCO5)CC4)nc(C(F)(F)F)c3C#N)C2)CC1` [Compound 3-039, 4-(3-(4-acryloylpiperazin-1-yl)azetidin-1-yl)-6-(1-oxa-8-azaspiro[4.5]decan-8-yl)-2-(trifluoromethyl)nicotinonitrile], the IC50 in assay [1] is 1650 nM; in assay [2] it was greater than 5000 nM; in assay [3] it was 2410 nM.
In the same order, the values of `C=CC(=O)N1CCN([C@@H]2CN(c3cc(N4CCC5(CC4)OCCc4ncsc45)nc(C(F)(F)F)n3)[C@@H]2C)CC1` [Compound 3-002, 1-(4-((2R,3R)-1-(6-(6′,7′-Dihydrospiro[piperidine-4,4′-pyrano[4,3-d]thiazol]-1-yl)-2-(trifluoromethyl)pyrimidin-4-yl)-2-methylazetidin-3-yl)piperazin-1-yl)prop-2-en-1-one] are 315 nM, greater than 5000 nM and 625 nM.
Take `C=CC(=O)N1CCN(C2CN(c3cc(N4CCC5(CC4)O[C@H](C)C=C5Cl)nc(C(F)(F)F)c3C#N)C2)CC1` (single isomer, unassigned) [Compound 3-067-1]: the IC50 in assay [1] was 527 nM; in assay [2], greater than 5000 nM; in assay [3] it was 1310 nM.
As for `C=CC(=O)N1CCN([C@@H]2CN(c3cc(N4CCC5(CC4)OC[C@H](C)n4ncc(C)c45)nc(C(F)(F)F)n3)[C@@H]2C)CC1` [Compound 3-101, 1-(4-((2R,3R)-1-(6-((7′S)-3′,7′-dimethyl-6′,7′-dihydro-1H-spiro[piperidine-4,4′-pyrazolo[5.1-c][1,4]oxazin]-1-yl)-2-(trifluoromethyl)-4-pyrimidinyl)-2-methyl-3-azetidinyl)-1-piperazinyl)-2-propen-1-one], the figures for the IC50 in assay [1], in assay [2] and in assay [3] were 70 nM, greater than 5000 nM and 259 nM, respectively.
In the same order, the values of `C=CC(=O)N1CCN([C@@H]2CN(c3cc(N4CC[C@]5(C[C@H]4C)OCC(CF)n4ncc(C)c45)nc(C(F)F)n3)[C@@H]2C)CC1` (stereo partly drawn) [Compound 3-084, 1-(4-((2R,3R)-1-(2-(difluoromethyl)-6-((2R,4R)-7′-(fluoromethyl)-2,3′-dimethyl-6′,7′-dihydrospiro[piperidine-4,4′-pyrazolo[5,1-c][1,4]oxazin]-1-yl)pyrimidin-4-yl)-2-methylazetidin-3-yl)piperazin-1-yl)prop-2-en-1-one] are 176 nM, greater than 5000 nM and 172 nM.
`C=CC(=O)N1CCN([C@@H]2CN(c3cc(N4CCC5(CC4)OCC=C5C)nc(C(F)(F)F)n3)[C@@H]2C)CC1` [Compound 3-061, 1-(4-((2R,3R)-2-Methyl-1-(6-(4-methyl-1-oxa-8-azaspiro[4.5]dec-3-en-8-yl)-2-(trifluoromethyl)pyrimidin-4-yl)azetidin-3-yl)piperazin-1-yl)prop-2-en-1-one]: the IC50 in assay [1] was 184 nM; in assay [2], greater than 5000 nM; in assay [3], 936 nM.
For the compound `C=CC(=O)N1CCN([C@@H]2CN(c3cc(N4CC[C@]5(C[C@H]4C)OC[C@H](COC)n4ncc(C)c45)nc(C(F)(F)F)n3)[C@@H]2C)CC1` (single isomer, unassigned) [Compound 3-089-1], the IC50 was 42 nM in assay [1], greater than 5000 nM in assay [2] and 102 nM in assay [3].
In the same order, the values of `C=CC(=O)N1CCN([C@@H]2CN(c3cc(N4CCC5(CC4)OCc4ncsc45)nc(C(F)(F)F)n3)[C@@H]2C)CC1` [Compound 3-001, 1-(4-((2R,3R)-1-(6-(4H-Spiro[furo[3,4-d]thiazole-6,4′-piperidin]-1′-yl)-2-(trifluoromethyl)pyrimidin-4-yl)-2-methylazetidin-3-yl)piperazin-1-yl) prop-2-en-1-one] are 376 nM, greater than 5000 nM and 665 nM.
In the case of `C=CC(=O)N1CCN(C2CN(c3cc(N4CCC5(CC4)COc4ccccc45)nc(C(F)(F)F)c3C#N)C2)CC1` [Compound 3-015], the values for the IC50 in assay [1], in assay [2] and in assay [3] were 669 nM, greater than 5000 nM and 2760 nM, respectively.
In the same order, the values of `C=CC(=O)N1CCN(C2CN(c3cc(N4CCC5(CC4)OCCC5F)nc(C(F)(F)F)c3C#N)C2)CC1` (stereo not drawn) [Compound 3-058, 4-(3-(4-Acryloylpiperazin-1-yl)azetidin-1-yl)-6-(4-fluoro-1-oxa-8-azaspiro[4.5]decan-8-yl)-2-(trifluoromethyl)nicotinonitrile] are 920 nM, greater than 5000 nM and greater than 5000 nM.
For `C=CC(=O)N1CCN([C@@H]2CN(c3cc(N4CCC5(CC4)OCC=C5C)nc(C(F)F)c3C)[C@@H]2C)CC1` [Compound 3-057, 1-(4-((2R,3R)-1-(2-(Difluoromethyl)-3-methyl-6-(4-methyl-1-oxa-8-azaspiro[4.5]dec-3-en-8-yl)pyridin-4-yl)-2-methylazetidin-3-yl)piperazin-1-yl) prop-2-en-1-one] the same measures were 288 nM, greater than 5000 nM and 272 nM.
In the same order, the values of `C=CC(=O)N1CCN([C@@H]2CN(c3cc(N4CCC5(CC4)OCCC5=C)nc(C(F)(F)F)n3)[C@@H]2C)CC1` [Compound 3-074, 1-(4-((2R,3R)-2-Methyl-1-(6-(4-methylene-1-oxa-8-azaspiro[4.5]decan8-yl)-2-(trifluoromethyl)pyrimidin-4-yl)azetidin-3-yl)piperazin-1-yl) prop-2-en-1-one] are 423 nM, greater than 5000 nM and 1160 nM.
With `C=CC(=O)N1CCN([C@@H]2CN(c3cc(N4CCC5(CC4)OC(C)(C)c4nccc(C)c45)nc(C(F)(F)F)n3)[C@@H]2C)CC1` [Compound 3-095], the IC50 in assay [1] was 31 nM; in assay [2] it was greater than 5000 nM; in assay [3], 159 nM.
In the same order, the values of `C=CC(=O)N1CCN(C2CN(c3cc(N4CCC5(CC4)OCc4ncsc45)nc(C(F)(F)F)c3C#N)C2)CC1` [Compound 3-046, 4-(3-(4-Acryloylpiperazin-1-yl)azetidin-1-yl)-6-(4H-spiro[furo[3,4-d]thiazole-6,4′-piperidin]-1′-yl)-2-(trifluoromethyl)nicotinonitrile] are 253 nM, greater than 5000 nM and 1140 nM.

Source of the values: patent US20260327243A1, “SPIRO-HETEROCYCLIC INHIBITORS OF KRAS G12C MUTANT PROTEINS AND USES THEREOF” (AMGEN INC., priority 2023, published 2026).
